Data from US20220079966A1, “HYALURONAN SYNTHESIS INHIBITION FOR TREATING AUTOIMMUNE, INFLAMMATORY, FIBROTIC, OR PROLIFERATIVE DISEASES OR DISORDERS” (The Board of Trustees of the Leland Stanford Junior …, priority 2018, published 2022).

What was measured:
[1] = Conversion of 4-MUG into fluorescent 4-MU in medium (fluorescence plate reader); type: in vitro ADME; settings: PBS with 10% FCS, monitored up to 72 hours
Experimental: Given the established activity of 4-MU leading to inhibition of HA synthesis, it seemed possible that the bioactivity of 4-MUG could be attributed to its hydrolysis into 4-MU. It is generally known that 4-MU is fluorescent while 4-MUG is not. In particular, 4-MU has an excitation wavelength of 380 nm and an emission wavelength of 454 nm in water.
Fluorescent values of 4-MUG were normalized to the 4-MU fluorescence. Referring to FIG. 2 B, 4-MU or 4-MUG was added to PBS with 10% FCS and the increase of fluorescence signal using a fluorescence plate reader was monitored at intervals up to 72 hours.

[2] = Chemical stability of 4-MUG in fasted state simulated gastric fluid; type: physicochemical; settings: 100 μM, FaSSGF pH 1.6, 37° C., 0-120 minutes
Experimental: To determine the chemical stability of 4-MUG, its half-life (t1/2) was evaluated. 4-MUG was tested at a concentration of 100 μM. The internal standard (IS) was prepared at 50 ng/mL with tolbutamide in DMSO and a buffer solution was prepared of fasted state simulated gastric fluid (FaSSGF) at pH 1.6. The buffer was pre-warmed at 37° C. for 15 minutes, subsequently 4-MUG was added, and the solution was vortexed. Next, 30 μL of this reaction mixture was removed at each time point for analysis. The time points included 0 minutes, 15 minutes, 30 minutes, 60 minutes and 120 minutes. The reaction was stopped at the end of the experiment by adding IS solution. The samples were centrifuged at 4,000 rpm for 15 minutes at 4° C. 100 μL of the supernatant was mixed with distilled water for further liquid chromatography with tandem mass spectrometry (LC-MS/MS) analysis. The mass spectrometry detection was performed using a SCIEX® API 4500 Qtrap® (Sciex, Redwood City, Calif.). Each compound was analyzed by reverse phase high performance liquid chromatography (HPLC). The parameters calculated were the ratio of 4-MUG, the percent of 4-MUG remaining versus time, and the estimation of 4-MUG's t1/2.

[3] = system: CTLL2 cells; assay: HA synthesis inhibition in CTLL2 lymphoma cells; type: cell-based; settings: lymphoma cell line
Experimental: (§1) Samples were thawed and assayed for HA levels using a modified HA ELISA as previously described (Nagy N., et al., J. Clin. Invest. 2015; 125(10):3928-3940). Each sample was analyzed in triplicate with a mean value obtained per sample. For cell normalization, LI-COR CellTag™ 700 Stain was used according to the manufactures protocol.

[4] = system: db/db mice; assay: db/db mouse model of type 2 diabetes; type: in vivo; settings: for body weight of db/db mice: after start of treatment; for intra-peritoneal glucose tolerance testing (IPGTT): fasting db/db mice fed drug for previous 2 weeks; for HA staining in pancreatic islets of db/db mice: mouse, in vivo; for blood glucose (BG) levels in db/db mice: over one month, 4-MU chow or 4-MUG in drinking water vs control chow
Text: All animals were bred and maintained under specific pathogen-free conditions, with free access to food and water, in the animal facilities at Stanford University Medical School (Stanford, Calif.). B6 db/db LeptR−/− mice were purchased from Jackson Laboratories (JAX) as well as DO11.10 transgenic mice. The DO11.10 mice were bred with Balb/c mice expressing RIPmOva (ovalbumin peptide amino acids 323-339; available at the Benaroya Research Institute) to generate the DORmO double-transgenic mice. In addition, C57Bl/6J mice were bred in-house at Stanford University School of Medicine.
Beginning at four weeks of age, mice were weighed weekly as well as bled via the tail vein for the determination of their blood glucose level using a Contour® blood glucose meter and blood glucose monitoring strips (Bayer Healthcare). When two consecutive blood glucose readings of 250 mg/dL were recorded, animals were considered diabetic. When two consecutive blood glucose readings of 300 mg/dL were recorded, animals were euthanized.
The 4-MU (Alfa Aesar) was pressed into mouse chow (TestDiet, St. Louis, Mo.) and irradiated before shipment, as previously described (Nagy N., et al., Circulation. 2010; 122(22):2313-2322). This chow formulation delivers 250 mg/mouse/day, yielding a serum drug concentration of 640.3±17.2 nmol/L in mice, as measured by HPLC-MS. 4-MUG (ChemImpex, Wood Dale, Ill.) was distributed in the drinking water at a concentration of 2 mg/ml, delivering 10 mg/mouse/day, yielding a serum drug concentration of 357.1±72.6 ng/mL in mice, as measured by LC-MS/MS. Mice were initiated on 4-MU and 4-MUG at five, eight or twelve weeks of age, unless otherwise noted, and were maintained on this diet until they were euthanized, unless otherwise noted. For analysis of Foxp3+ regulatory T-cell numbers in naïve mice, mice were treated daily with 0.5 mg of 4-MU or 1.0 mg 4-MUG in 200 μl 0.08% carboxymethylcellulose in saline by intra-peritoneal injection.
To assess whether 4-MUG is effective against HA synthesis in a different inflammatory disease that is non-autoimmune in nature, the role of 4-MUG in the db/db model of type 2 diabetes was investigated. db/db mice lack a functional leptin receptor and are obese and diabetic.
Referring to FIG. 7D, the beneficial effect of 4-MU and 4-MUG on glycemic control was maintained for at least 10 weeks, indicating a lasting improvement. FIGS. 7F and 7G show intra-peritoneal glucose tolerance testing (IPGTT) of fasting db/db mice fed 4-MU or 4-MUG for 2 weeks.

[5] = system: B16F10 cells; assay: 4-MU fluorescence of treated B16F10 cells by flow cytometry, pre- and post-permeabilization; type: in vitro ADME, murine
Experimental: Fluorescent values of 4-MUG were normalized to the 4-MU fluorescence. Referring to FIG. 2 B, 4-MU or 4-MUG was added to PBS with 10% FCS and the increase of fluorescence signal using a fluorescence plate reader was monitored at intervals up to 72 hours. […] B16F10 cells were cultured in DMEM and were treated with different concentrations of 4-MU and 4-MUG (30, 100, 300 μM) for 24 and 48 hours. Cultured cells were lysed and analyzed for HA concentration determination using an HA ELISA. HA staining in B16F10 cells placed in 96 well plates were imaged using fluorescence microscopy. To measure 4-MU florescence intensity in B16F10 cells treated with 4-MU and 4-MUG, B16F10 cells were trypsinized and 4-MU fluorescence associated with the cells was analyzed by flow cytometry in the Pacific Blue channel using a BD™ LSRII flow cytometer. For permeabilization, after trypsinization, cells were incubated in methanol at −20° C. for 20 min and washed once before flow cytometric analysis.

[6] = HPLC of 4-MU and metabolites in serum of mice fed 4-MU chow for two weeks; type: in vivo; settings: mice fed 4-MU for two weeks
Text: As a result of efficient glucuronidation of 4-MU in the liver and intestines by multiple UDP-glucuronosyltransferases (UGTs), the predominant form present systemically in mice on oral 4-MU chow is 4-MUG, as has been reported previously (Mulder G J, et al., Biochem Pharmacol. 1985; 34(8):1325-1329). For example, FIG. 1A illustrates molecular structures for 4-MU and its primary metabolites, 4-MUG and 4-MUS. […] N=3 animals per group. […] N=3 animals per group.

[7] = system: Min6 cells; assay: HA synthesis inhibition in Min6 insulinoma cells; type: cell-based; settings: insulinoma cell line
Experimental: as §1

time from which fluorescence (conversion to 4-MU) could be detected [1]	chemical stability [2]	time after which treated B16F10 cells became fluorescent ([5]; incubated 24, 48 or 72 hours, flow cytometry) [h]	median serum concentration of 4-MUG relative to parent compound 4-MU [6]	fluorescence of treated B16F10 cells upon permeabilization [5]	SMILES	HA synthesis inhibition in CTLL2 cells [3]	body weight of db/db mice [4]	intra-peritoneal glucose tolerance testing (IPGTT) [4]	HA staining in pancreatic islets of db/db mice [4]	blood glucose (BG) levels in db/db mice [4]	HA synthesis inhibition in Min6 cells [7]
around 30 hours	stable	48 to 72	about 150 fold	–	Cc1cc(=O)oc2cc(O[C@@H]3O[C@H](C(=O)O)[C@@H](O)[C@H](O)[C@H]3O)ccc12 [4-MUG, 4-methylumbelliferone-glucuronide]	inhibited HA synthesis	soon recovered	improvement in glycemic control	reduced HA staining	reliably decreased blood glucose	inhibited HA synthesis
–	–	–	–	lost upon permeabilization	Cc1cc(=O)oc2cc(O)ccc12 [4-MU, 4-methylumbelliferone]	HA synthesis inhibition	initial decrease in weight	improvement in glycemic control	reduced HA staining	reliably decreased blood glucose	HA synthesis inhibition
